The subject of series [1] is TCF/LEF transcriptional activity. Kind of series: TCF/LEF reporter (Topflash) dual luciferase assay in colorectal cancer cells. The format is cell-based. Conditions: 0, 0.125, 0.25, 0.5 nM; as concentration increased. The procedure: At first, after treating niclosamide of nM units at concentrations of 0 nM, 0.125 nM, 0.25 nM and 0.5 nM to colorectal cancer cells for 24 hours, the beta-catenin (β-catenin) activity and TCF/LEF reporter (Topflash) activity of colorectal cancer cells were measured.
The TCF/LEF transcriptional activity was carried out by transformation with 100 ng of a reporter gene and 1 ng of transfection control pRL-SV40-Renilla. The reporter activity was measured with a dual luciferase assay system (Promega) in 48 hours after infection, and was standardized by measuring the co-transformed renilla activity, and the reporter gene activity was represented by light units in proportion to light units obtained from the negative control group.

For series [2], the system named is GSK3, β-catenin and Snail. Kind of series: Immunoblotting of nucleo-cytoplasm fractions of colorectal cancer cells. Conditions: 0.25 nM, 24 hours, HCT116, SW480 and DLD-1. It counts as cell-based. The procedure:
After treating niclosamide of 0.25 nM to colorectal cancer cell lines HCT116, SW480 and DLD-1 cells for 24 hours, the amount of GSK3, β-catenin and Snail of nucleo-cytoplasm fractions was analyzed by immunoblotting.
The amount of Snail and GSK3 protein in cells was confirmed by separating nuclei and cytoplasm in the hypotonic solution (Kim N H, et al., Sci Signal. 4:ra71, 2011; Yook J I, et al. Nat Cell Biol., 8:[…], 2006). Briefly, after collecting colorectal cancer cells (1×10^6 cells) in a centrifugation tube, they were washed with PBS and were treated with the hypotonic solution (10 mM HEPES, pH7.9; 10 mM KCl; 1 mM DTT with protease inhibitors) 400 μl on ice for 5 minutes. The cell membrane was degraded by addition of 10% NP-40, and the final concentration was adjusted to 0.6% final concentration, and then was mixed well and high-speed centrifugation was conducted for 30 seconds. The cytoplasmic resolvents were separated and nuclear precipitates were washed with cold PBS twice. The nucleoprotein was extracted by treating hypertonic buffer (20 mM HEPES, pH7.9; 0.4 M NaCl; 1 mM DTT with protease inhibitors) on ice for 15 minutes, and then high-speed centrifugation was conducted, and the amount of GSK3, β-catenin and Snail of nucleo-cytoplasm fractions was analyzed by immunoblotting.

The test system of a further series is HCT116 and SW480 cells. Nature of the series: Tumor growth of HCT116 and SW480 cells injected into nude mice. The format is in vivo. The settings on record: intraperitoneal administration daily. On the procedure:
Next, the effect of niclosamide having tumor formation potential in vivo experiment of HCT116 and SW480 cells was investigated.
Colorectal cancer cell lines HCT116 (5×10^6 cells) and SW480 (5×10^6 cells) were mixed in 100 μl PBS and were injected into flank subcutaneous tissues in female athymic nude mice (6 weeks old). Mice were randomly assigned to two groups and a vehicle and niclosamide were intraperitoneally injected daily and they were treated for […]. Niclosamide was dissolved with 10% Cremophor EL (BASF) and 0.9% NaCl and then was intraperitoneally injected. After injection of colorectal cancer cells, mice were observed daily and the weight change was measured twice a week. In addition, when a tumor was observed, it was measured with calipers. The tumor size was calculated by the equation (LXW2)/2. Herein, L is a long diameter of the tumor and W is a short diameter.

The subject of series [3] is TCF/LEF transcriptional activity induced by mutant APC. Nature of the series: TCF/LEF transcriptional activity in 293 cell transformed by mutant APC. The format is cell-based. The settings on record: 0, 0.125, 0.25, 0.5 μM, 24 hours. The procedure: Based on the results of Examples 2-5 that niclosamide inhibited Wnt activity and EMT through Axin-GSK3 inhibition, whether niclosamide could attenuate the TCF/LEF transcriptional activity induced by mutant APC was confirmed.
After transforming the mutant APC expression vector, pCMV-neo-Bam APC 1-1309 (#16508, Addgene) or pCMV-neo-BamAPC 1-1941 (#16510, Addgene) and Topflash reporter vector to 293 cell (ATCC), niclosamide (0 μM, 0.125 μM, 0.25 μM and 0.5 μM) was treated for 24 hours. The TCF/LEF transcriptional activity was quantified by measuring the luciferase activity as same as Example 2.

Another series concerns intestinal adenoma. Kind of series: Adenoma formation in APC-MIN mice model. The format is in vivo. On the procedure: In addition, in order to confirm the therapeutic effect of niclosamide in vivo, the effect of niclosamide affecting on adenoma formation in APC-MIN (multiple intestinal neoplasia, APCΔ850) mice model was confirmed.
APC-MIN mice were prepared by crossbreeding of wild-type C57BL/6J (APC+/+) females and MIN C57BL/6J (APCMin/+) males, and APC-MIN descendants were randomly assigned in subgroups at 3 weeks age by identifying with PCR-based assay. A vehicle or niclosamide (50 mg/kg) was intraperitoneally injected daily (6 days/week), and mice were observed daily, and the weight was measured twice a week. After the end of 14 weeks, mice were sacrificed and the whole intestine was collected and intestinal flakes were opened longitudinally with scissors, and were washed with saline and were unfolded, and then tissues were obtained. The tissues were fixed with 10% formalin for 24 hours and were washed with 70% alcohol. The fixed intestinal tissues were observed using a stereomicroscope, and the size of adenoma (small, <1 mm; medium 1˜3 mm; large >3 mm) was discriminated and counted for each mouse. In case of oral administration, APC-MIN mice ingested niclosamide mixed with 15% sugar gel vehicle daily (6 days/week) for 14 weeks. The number and size of adenoma were measured with a stereomicroscope.

In series [4] the target is Helicobacter pylori CagA - GSK3 binding (Homo sapiens, UniProt P49841). Kind of series: Immunoprecipitation of CagA and GSK3. Conditions: various amounts. The source says: (§1) In view of the results of Examples 2˜5 that niclosamide inhibited Wnt activity and EMT through Axin-GSK3 inhibition, and that CagA of Helicobacter (Helicobacter pylori) bound to GSK-3 similarly to Axin, the effect of GSK-3 binding and Snail induction by CagA of Helicobacter pylori by niclosamide was confirmed. It was confirmed that binding of CagA and GSK3 was inhibited by niclosamide similarly to Axin 2, when examining with immunoprecipitation after adding various amounts of niclosamide to this sample (FIG. 10A). In addition, it could be seen that Snail expression by CagA was inhibited when treating niclosamide after inducing CagA and Snail expression in the 293 cell (FIG. 10B). Through such a result, it could be seen that niclosamide inhibited the function of CagA performing function similar to Axin and thereby inhibited gastric cancer occurrence and inflammation by Helicobacter.
Sequence of Helicobacter pylori CagA - GSK3 binding (P49841 whole entry): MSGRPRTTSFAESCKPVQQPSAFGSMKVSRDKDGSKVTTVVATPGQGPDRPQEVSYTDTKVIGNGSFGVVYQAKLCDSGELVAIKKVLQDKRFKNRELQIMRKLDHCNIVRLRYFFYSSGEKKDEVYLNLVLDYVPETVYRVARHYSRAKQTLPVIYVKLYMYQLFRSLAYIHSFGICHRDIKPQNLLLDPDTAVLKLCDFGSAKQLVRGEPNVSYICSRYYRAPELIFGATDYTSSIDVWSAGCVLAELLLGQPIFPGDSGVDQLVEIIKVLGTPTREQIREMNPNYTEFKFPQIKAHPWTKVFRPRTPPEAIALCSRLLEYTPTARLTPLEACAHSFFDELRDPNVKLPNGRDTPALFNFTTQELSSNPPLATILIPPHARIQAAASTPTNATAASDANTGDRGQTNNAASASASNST

For a further series, the system named is Snail expression by CagA. Nature of the series: Snail expression induced by CagA in the 293 cell. It counts as cell-based.
Description: as §1

Where [5] appears, read: orally administered for 14 weeks.

Each structure is given as a SMILES string.

With `O=C(Nc1ccc([N+](=O)[O-])cc1Cl)c1cc(Cl)ccc1O` [niclosamide], the TCF/LEF transcriptional activity result in series [1] is listed as “reduced”. Moreover, in series [2], the GSK3 of nuclei entry is listed as “increased”, the “amount of Snail” value is “reduced” and the amount of beta-catenin result was “reduced”. In addition, the “tumor growth of colorectal cancer cells” value in the series with HCT116 and SW480 cells was “significantly inhibited”. Moreover, in series [3], the “TCF/LEF transcriptional activity increased by mutant APC” value is on record as “reduced”. Besides, in the series on intestinal adenoma (intraperitoneal 50 mg/kg daily, 14 weeks), the body weight result is reported as “did not change”. Besides, the intestinal adenoma result in the series on intestinal adenoma (intraperitoneal 50 mg/kg daily, at 14 weeks) is “significantly reduced”. For the same compound, in the series with intestinal adenoma (setting [5]), the “condition of experimental animal” value is recorded as “stable during the drug treatment” and the intestinal adenoma formation entry was “significantly inhibited”. Further, the “binding of CagA and GSK3” value in series [4] is given as “inhibited”. Moreover, in the series with Snail expression by CagA, the “Snail expression by CagA” value is “inhibited”.

The values above are taken from US11033518B2, “Pharmaceutical composition containing niclosamide for treating axin-GSK3 interaction-related diseases” (BAOBAB PHARM CO., LTD., priority 2017, dated 2021).
